Results taken from paper PMC3462190, “A Peptidic Unconjugated GRP78/BiP Ligand Modulates the Unfolded Protein Response and Induces Prostate Cancer Cell Death” (PLoS ONE, 2012).
Where no end group is shown, it is not given here.

System: 22Rv.1 cells
Experiment: Clonogenic assay
Type: cell-based
Conditions: neomycin selection, colonies quantified; mean ± SEM of at least three independent experiments
From the text: Figure 5 An N-terminal unfolded fragment of the Bag-1 peptide is sufficient to reduce tumor cell growth. A. Schematic diagram of the Bag-1 peptide and its deletion mutants. The ubiquitin-like domain is represented in blue and the BAG domain in red. The numbers refer to the amino acid positions of the different domains. The amino acid residues are numbered following the numbering for Bag-1L. B. Prediction of the secondary structure of the Bag-1 peptide, showing an N-terminal β-hairpin from the ubiquitin-like domain (blue) and a C-terminal α-helix from the BAG domain (red). C. Normalized circular dichroism spectra of the Bag-1 peptides. 30 µM of the Bag-1 peptide were measured in 20 mM KHPO4 buffer, pH 6.8 (black line). Its α-helical content was estimated to be approximately 25% by deconvolution of the spectra (red line). 12 µM of the N-term peptide (green line) and 11 µM of C-term (blue line) were measured under the same conditions. D. ^1H^15N-HSQC NMR spectrum of ^15N-labeled Bag-1 peptide (202–269) in 20 mm KHPO4 buffer, pH 6.8, at 23°C. […] The Hδ and Hε side chain signals of asparagine and glutamine are connected by thin lines. E. The N-terminal region of the Bag-1 peptide is important for GRP78 binding. 400 µg of 22Rv.1 cell lysate were incubated with glutathione-agarose beads carrying 15 µg GST-N-term peptide (lane 2), GST-C-term peptide (lane 3), GST-ΔUbi peptide (lane 4), GST-Bag-1(202–269) peptide (lane 5) and GST (lane 6). The beads were washed and the bound proteins were separated by 10% SDS-PAGE and subjected to Western blotting using antibodies directed against GRP78 or GST. […] F. Clonogenic assay of the Bag-1 peptides expressed in 22Rv.1 cells. Cells transfected with the indicated constructs were selected in medium containing neomycin and the colonies formed were quantified. Shown are the mean value ±SEM of at least three independent experiments using three different plasmid preparations (*p<0.05). […] Six-week old athymic nude mice were injected subcutaneously on both flanks with 5×10^6 cells of each stable clone. Tumor size was measured once per week using a caliper and expressed as tumor volume in mm^3. Shown are the tumor volumes of clones transfected with the N-terminal peptide (G), the C-terminal peptide (H) and the ΔUbi peptide (I). Each point represents the mean volume and standard deviation of at least 5 to 10 tumors.
Figure 6 Selectivity of action of the Bag-1 peptide. A Amino acid sequence of the 19mer peptide and its deletion mutants. B GST pull-down assay performed incubating 400 µg of 22Rv.1 cell lysate and 25 µg of GST-fused deletion mutants of the 19mer peptide. After the pull-down experiment, Western blots were carried out with anti-GRP78/BiP and GST antibodies. C. Fluorescence polarization (FP) assays with a 10 nM FITC-labeled 7-mer Bag-1 peptide and dilutions of the GST-fused substrate binding domain of GRP78 in 60 µl of Tris-GSH buffer (50 mM Tris, 10 mM reduced glutathione and 0.1% BSA, pH 8.0). Triplicate samples were measured after 5 h of incubation at room temperature with an Infinite F-200 reader (Tecan) with excitation at 490 nm and emission at 535 nm. Binding constants were determined from three independent experiments using non-linear regression in Sigma Plot 10.0. D. Competition assays with a complex of 10 nM of FITC-labeled Bag-1 7-mer peptide and 0.75 mg/ml GST-fused GRP78 substrate binding domain was measured against a dilution series from 100 µM to 0.1 nM of wild-type Bag-1 7-mer peptide (filled line) or triple mutant peptide (dotted line) in 40 µl of Tris-GSH buffer. FITC-peptide and the FITC-peptide-protein complex were used as controls. Fluorescence polarization was determined as described above and IC50 values were determined in Sigma Plot. […]

Row | Molecule | 22Rv.1 growth in clonogenic assay
1 | ΔUbi peptide: Bag-1 peptide lacking the ubiquitin-like domain portion (Bag-1L 220–269) (KKNSPQEEVELKKLKHLEKSVEKIADQLEELNKELTGIQQGFLPKDLQAE; not fully specified) | ineffective
2 | C-terminal peptide: 28 C-terminal fragment of the Bag-1 peptide (Bag-1L 241–269) (EKIADQLEELNKELTGIQQGFLPKDLQAE; not fully specified) | ineffective
3 | 19-mer: Bag-1L 202–220 (TPLSALGIQDGCRVMLIGK; not fully specified) | inhibit 22Rv.1 cell growth
4 | N-terminal peptide: N-terminal 40 residues of the Bag-1 peptide (Bag-1L 202–241) (TPLSALGIQDGCRVMLIGKKNSPQEEVELKKLKHLEKSVE; not fully specified) | inhibited growth of the 22Rv.1 cells
5 | Bag-1 peptide: internal sequence of 68 amino acids of Bag-1 (Bag1-L 202–269), HA-tagged, expressed from pcDNA3 (also: HA tag, end not given here) TPLSALGIQDGCRVMLIGKKNSPQEEVELKKLKHLEKSVEKIADQLEELNKELTGIQQGFLPKDLQAE | inhibited growth of the 22Rv.1 cells
